Assay results: patent US6737383B1, “Herbicidal oxadiazolidines” (priority 1999, dated 2004)

Key:
purple nutsedge = assay: Test B pre/postemergence purple nutsedge; format: in vivo, Cyperus rotundus; settings: Postemergence
Summary of the method: (§1)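 Test chemicals in a non-phytotoxic solvent mixture with surfactant were sprayed preemergence onto planted seeds and postemergence onto plants 2 to 18 cm tall (1- to 4-leaf stage). After twelve to sixteen days in a greenhouse, injury was visually rated against untreated controls from 0 (no effect) to 10 (complete control).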

giant foxtail = assay: Test B pre/postemergence giant foxtail; format: in vivo, Setaria faberii
Summary of the method: as §1

duck salad = assay: Test B flood test duck salad; format: in vivo, Heteranthera limosa
Summary of the method: (§2)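 Plants were grown to the 2-leaf stage before treatment with test chemical, then held in a greenhouse for twelve to sixteen days. Injury was visually rated against untreated controls on a 0–10 scale, where 0 is no effect and 10 is complete control.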

blackgrass = assay: Test B pre/postemergence blackgrass; format: in vivo, Alopecurus myosuroides
Summary of the method: as §1

wild oat = assay: Test B pre/postemergence wild oat; format: in vivo, Avena fatua
Summary of the method: as §1

corn = assay: Test B pre/postemergence corn; format: in vivo, Zea mays
Summary of the method: as §1

surinam grass = assay: Test B pre/postemergence surinam grass; format: in vivo, Brachiaria decumbens
Summary of the method: as §1

bedstraw = assay: Test B pre/postemergence bedstraw; format: in vivo, Galium aparine
Summary of the method: as §1

smallflower flatsedge = assay: Test B flood test smallflower flatsedge; format: in vivo, Cyperus difformis
Summary of the method: as §2

morningglory = assay: Test B pre/postemergence morningglory; format: in vivo, Ipomoea hederacea
Summary of the method: as §1

crabgrass = assay: Test B pre/postemergence crabgrass; format: in vivo, Digitaria sanguinalis
Summary of the method: as §1

rape = assay: Test B pre/postemergence rape; format: in vivo, Brassica napus
Summary of the method: as §1

soybean = assay: Test B pre/postemergence soybean; format: in vivo, Glycine max
Summary of the method: as §1

wheat = assay: Test B pre/postemergence wheat; format: in vivo, Triticum aestivum
Summary of the method: as §1

velvetleaf = assay: Test B pre/postemergence velvetleaf; format: in vivo, Abutilon theophrasti
Summary of the method: as §1

rice = assay: Test B flood test rice; format: in vivo, Oryza sativa
Summary of the method: as §2

[1] = Preemergence, Rate 62 g/ha, scale of 0 to 10 where 0 is no effect and 10 is complete control
[2] = Preemergence, Rate 250 g/ha, scale of 0 to 10 where 0 is no effect and 10 is complete control
[3] = Preemergence, Rate 500 g/ha, scale of 0 to 10 where 0 is no effect and 10 is complete control
[4] = Rate 62 g/ha, Postemergence, scale of 0 to 10 where 0 is no effect and 10 is complete control
[5] = Rate 125 g/ha, Postemergence, scale 0 to 10
[6] = Rate 125 g/ha, Preemergence, scale of 0 to 10 where 0 is no effect and 10 is complete control
[7] = Rate 500 g/ha, Postemergence, scale 0 to 10, 0 no effect, 10 complete control
[8] = Rate 62 g/ha, headed Pre-emergence (flood test species), scale 0 to 10 (0 no effect, 10 complete control)
[9] = Rate 125 g/ha, Pre-emergence, flood test species, scale 0 to 10 where 0 is no effect and 10 is complete control
[10] = Rate 250 g/ha, Pre-emergence, flood-test species, scale 0 to 10, 0 is no effect, 10 is complete control
[11] = Rate 500 g/ha, Pre-emergence, flood test species, scale 0 to 10 (0 no effect, 10 complete control)

CC(C)N(C(=O)n1oc(=O)n(CCC2OCCO2)c1=O)c1ccc(F)cc1 [Compound 219]
0: Nutsedge plant response rating (purple nutsedge; Rate 62 g/ha, scale of 0 to 10 where 0 is no effect and 10 is complete control) | Nutsedge plant response rating (purple nutsedge; Rate 125 g/ha, scale 0 to 10) | Plant response rating (0 to 10; 0 is no effect, 10 is complete control), Nutsedge (purple nutsedge; Rate 250 g/ha) | Nutsedge plant response rating (purple nutsedge; Rate 500 g/ha, scale 0 to 10, 0 no effect, 10 complete control) | Ducksalad plant response rating (duck salad; [8]) | Ducksalad plant response rating (duck salad; [9]) | Ducksalad plant response rating (duck salad; [10]) | Corn plant response rating (corn; [1]) | Corn plant response rating (corn; [4]) | Corn plant response rating (corn; [5]) | Corn plant response rating (corn; [6]) | B. signalgrass plant response rating (surinam grass; [4]) | S. Flatsedge plant response rating (smallflower flatsedge; [8]) | S. Flatsedge plant response rating (smallflower flatsedge; [9]) | S. Flatsedge plant response rating (smallflower flatsedge; [10]) | Morningglory plant response rating (morningglory; [1]) | Morningglory plant response rating (morningglory; [2]) | Morningglory plant response rating (morningglory; [6]) | Rape plant response rating (rape; [1]) | Rape plant response rating (rape; [6]) | Soybean plant response rating (soybean; [1]) | Soybean plant response rating (soybean; [2]) | Plant response rating, Soybean (soybean; [3]) | Soybean plant response rating (soybean; [6]) | Velvetleaf plant response rating (velvetleaf; [4]) | Velvetleaf plant response rating (velvetleaf; [5]) | Rice plant response rating (rice; [8]) | Rice plant response rating (rice; [9]) | Rice plant response rating (rice; [10])
7: Giant foxtail plant response rating (giant foxtail; [5]) | Blackgrass plant response rating (blackgrass; [1]) | Blackgrass plant response rating (blackgrass; [5]) | Plant response rating, Corn (corn; [3]) | Plant response rating (0 to 10; 0 is no effect, 10 is complete control), Morningglory (morningglory; Rate 250 g/ha, Postemergence) | Morningglory plant response rating (morningglory; [7]) | Plant response rating (0 to 10; 0 is no effect, 10 is complete control), Rape (rape; Rate 250 g/ha, Postemergence) | Rape plant response rating (rape; [7]) | Plant response rating (0 to 10; 0 is no effect, 10 is complete control), Soybean (soybean; Rate 250 g/ha, Postemergence) | Soybean plant response rating (soybean; [7]) | Plant response rating (0 to 10; 0 is no effect, 10 is complete control), Wheat (wheat; Rate 250 g/ha, Postemergence) | Wheat plant response rating (wheat; [7]) | Velvetleaf plant response rating (velvetleaf; [2])
4: Plant response rating (0 to 10; 0 is no effect, 10 is complete control), Wild oats (wild oat; Rate 250 g/ha, Postemergence) | Plant response rating (0 to 10; 0 is no effect, 10 is complete control), Corn (corn; Rate 250 g/ha, Postemergence) | B. signalgrass plant response rating (surinam grass; [1]) | S. Flatsedge plant response rating (smallflower flatsedge; [11]) | Crabgrass plant response rating (crabgrass; [5]) | Velvetleaf plant response rating (velvetleaf; [7])
5: Blackgrass plant response rating (blackgrass; [4]) | Wild oats plant response rating (wild oat; [6]) | Corn plant response rating (corn; [2]) | Corn plant response rating (corn; [7]) | Plant response rating (0 to 10; 0 is no effect, 10 is complete control), B. signalgrass (surinam grass; Rate 250 g/ha, Postemergence) | Bedstraw plant response rating (bedstraw; [6]) | Crabgrass plant response rating (crabgrass; [1]) | Soybean plant response rating (soybean; [4]) | Soybean plant response rating (soybean; [5]) | Wheat plant response rating (wheat; [4]) | Wheat plant response rating (wheat; [6])
8: Plant response rating (0 to 10; 0 is no effect, 10 is complete control), Giant foxtail (giant foxtail; Rate 250 g/ha, Postemergence) | Plant response rating (0 to 10; 0 is no effect, 10 is complete control), Blackgrass (blackgrass; Rate 250 g/ha, Postemergence) | Blackgrass plant response rating (blackgrass; [7]) | Wild oats plant response rating (wild oat; [2]) | B. signalgrass plant response rating (surinam grass; [7]) | Bedstraw plant response rating (bedstraw; [2]) | Plant response rating (0 to 10; 0 is no effect, 10 is complete control), Bedstraw (bedstraw; Rate 250 g/ha, Postemergence) | Bedstraw plant response rating (bedstraw; [7]) | Crabgrass plant response rating (crabgrass; [6]) | Crabgrass plant response rating (crabgrass; [7]) | Wheat plant response rating (wheat; [2])
10: Giant foxtail plant response rating (giant foxtail; [1]) | Giant foxtail plant response rating (giant foxtail; [2]) | Plant response rating, Giant foxtail (giant foxtail; [3]) | Giant foxtail plant response rating (giant foxtail; [6]) | Blackgrass plant response rating (blackgrass; [2]) | Plant response rating, Blackgrass (blackgrass; [3]) | Blackgrass plant response rating (blackgrass; [6]) | Plant response rating, Crabgrass (crabgrass; [3]) | Plant response rating, Rape (rape; [3]) | Plant response rating, Velvetleaf (velvetleaf; [3])
2: Wild oats plant response rating (wild oat; [1]) | B. signalgrass plant response rating (surinam grass; Rate 125 g/ha, Postemergence, scale 0 (no effect) to 10 (complete control)) | Rape plant response rating (rape; [4]) | Plant response rating (0 to 10; 0 is no effect, 10 is complete control), Velvetleaf (velvetleaf; Rate 250 g/ha, Postemergence)
9: Giant foxtail plant response rating (giant foxtail; [7]) | Plant response rating, Wild oats (wild oat; [3]) | B. signalgrass plant response rating (surinam grass; Preemergence, Rate 250 g/ha, scale 0 to 10, 0 is no effect, 10 is complete control) | Plant response rating, B. signalgrass (surinam grass; [3]) | Plant response rating, Bedstraw (bedstraw; [3]) | Crabgrass plant response rating (crabgrass; [2]) | Plant response rating, Wheat (wheat; [3])
1: Wild oats plant response rating (wild oat; [4]) | Bedstraw plant response rating (bedstraw; [1]) | Plant response rating, Morningglory (morningglory; [3])
6: Giant foxtail plant response rating (giant foxtail; [4]) | Wild oats plant response rating (wild oat; [7]) | B. signalgrass plant response rating (surinam grass; [6]) | Bedstraw plant response rating (bedstraw; [4]) | Bedstraw plant response rating (bedstraw; [5]) | Morningglory plant response rating (morningglory; [4]) | Morningglory plant response rating (morningglory; [5]) | Plant response rating (0 to 10; 0 is no effect, 10 is complete control), Crabgrass (crabgrass; Rate 250 g/ha, Postemergence) | Rape plant response rating (rape; [2]) | Wheat plant response rating (wheat; [5]) | Velvetleaf plant response rating (velvetleaf; [6]) | Rice plant response rating (rice; [11])
3: Ducksalad plant response rating (duck salad; [11]) | Wild oats plant response rating (wild oat; [5]) | Crabgrass plant response rating (crabgrass; [4]) | Rape plant response rating (rape; [5]) | Wheat plant response rating (wheat; [1]) | Velvetleaf plant response rating (velvetleaf; [1])
